US9901081B2, “Transgenic mouse for determining the role of senescent cells in cancer” (Buck Institute for Research on Aging, priority 2012, dated 2018)
Blank lines part the entries; values can stand above or below the compound they belong to.

Columns and labels:
[1] = system: K-Ras induced lung tumors; test: K-Ras mediated lung tumor multiplicity in INK-ATTAC:K-RasLA1 mice; format: in vivo, mouse; design: dose or concentration left out as unconfirmed; conditions: INK-ATTAC3:K-RasLA1 and INK-ATTAC5:K-RasLA1 mice; from three weeks of age; twenty one days after treatment; FIG. 4
Source text: Briefly, INK-ATTAC (p16^Ink4a apoptosis through targeted activation of caspase) transgenic mice have an FK506-binding protein (FKBP)-caspase 8 (Casp8) fusion polypeptide under the control of the p16^Ink4a promoter (see FIG. 5 providing a vector sequence for the transgene and FIG. 6 providing sequences for components of the transgene including the promoter sequence). In the presence of AP20187, a synthetic drug that induces dimerization of a membrane bound myristoylated FKBP-Casp8 fusion protein, senescent cells specifically expressing the FKBP-Casp8 fusion protein via the p16^Ink4a promoter undergo programmed cell death (apoptosis) (see, e.g., Baker, Nature, supra, FIG. 1 therein). Two founder lines (INK-ATTAC^3 and INK-ATTAC^5) were each bred with the K-rasLA1 tumor model. […]
Two INK-ATTAC:K-RasLA1 were produced (one for INK-ATTAC line 3 and one for line 5). […] Twenty one days after treatment, the mice were sacrificed and tumor multiplicity in lungs was measured. […] In addition, metastasis and overall survival will be monitored after tumor induction in the presence or absence of p16-positive cells.

senescent cells [2] = test: Detection and clearance of senescent cells by rLUC bioluminescence in irradiated p16-3MR mice; format: in vivo, mouse; conditions: 7 Gy X-ray, after three months GCV 25 mg/kg, lung tissue, FIG. 1A
Protocol: Briefly, a group of p16-3MR transgenic mice were exposed to whole body ionizing radiation (7 Gy X-ray) and a control group of p16-3MR transgenic mice were mock-irradiated. After three months, the mice were treated with GCV (25 mg/kg) or vehicle only, and then at least two weeks later bioluminescence in tissues was examined after administering the rLUC substrate.

[3] = Behavior metrics in p16-3MR mice bearing MMTV-PymT tumors; format: in vivo, mouse
Protocol: (§1) The MMTV-PymT tumor cells (5×10^5 cells) were injected into a mammary fat pad of each mouse. Small primary tumors formed over a period of one week. Then doxorubicin (DOXO) at 10 mg/kg or vehicle only (PBS) was administered once at Day 7. Beginning three days after mice received DOXO, GCV was then administered daily for five days intraperitoneally at 25 mg/kg, or vehicle only was administered. Four different treatment groups of mice (7 mice per group) included (1) no doxorubicin (vehicle), no GCV (vehicle); (2) doxorubicin, no GCV; (3) no doxorubicin, GCV; and (4) doxorubicin, GCV. Bioluminescence in tissues was examined (after administering the firefly luciferase (fLUC) substrate) to monitor tumor formation (see FIG. 14).
(§2) Mice were housed in metabolic cages (Promethion, Sable Systems International, Las Vegas, Nev.) for a period of 4 days to monitor food consumption, water consumption, body mass, spontaneous activity and behavior, voluntary exercise, oxygen consumption, and carbon dioxide production. Three days after GCV treatment, animals were monitored for three nights, and the following nocturnal measurements were obtained: VO2 (mL/min); VCO2 (mL/min); food uptake (g); water uptake (g); Kcal/hr; and wheel run distance (m). The data represent the average of the three nocturnal measurements.
Behavior of animals treated doxorubicin or doxorubicin and GCV was assessed by several criteria accepted in the art as behavior metrics.

B16 mouse melanoma cells [4] = test: Subcutaneous B16 melanoma growth in doxorubicin-treated p16-3MR mice; format: in vivo; conditions: for tumor growth / primary tumors (B16 bioluminescence) / tumor diameters (tumor sizes): then vehicle or GCV, twelve days after B16 injection; for tumor growth / primary tumors (B16 bioluminescence): FIG. 11; for tumor diameters (tumor sizes): FIG. 12
Protocol: (§3) Briefly, p16-3MR transgenic mice were treated with vehicle (ctrl) or 10 mg/kg doxorubicin. Seven days after doxorubicin treatment, mice were treated daily with GCV (25 mg/kg) for 7 days or vehicle only. 3 days after the last GCV treatment, 4×10^5 B16 mouse melanoma cells were injected subcutaneously into the p16-3MR transgenic mice, and mice were sacrificed after 12 days for analysis.

[5] = system: p16INK4a, IL-6, MMP-3, mRFP expression; test: RNA expression of SASP biomarkers and mRFP reporter after irradiation and GCV; format: in vivo, mouse
B16 mouse melanoma cells [6] = test: B16 melanoma tail-vein engraftment in irradiated p16-3MR mice (primary tumors and metastases); format: in vivo
Protocol: Briefly, 10^6 B16 mouse melanoma cells, a highly aggressive cell line that is syngeneic with p16-3MR transgenic mice (C57B16 background), that express firefly luciferase (fLUC, to enable their detection by bioluminescence) were injected into the tail vein of the p16-3MR transgenic mice three months after being either mock irradiated or irradiated, as described in Example 2. B16 mouse melanoma cells first colonize the lung, where they form primary tumors approximately two weeks after injection, and thereafter metastasize to distal tissues to form secondary tumors in, for example, the pancreas, liver and visceral fat. The biolumninescence markers, fLUC and rLUC are distinguishable because the enzymes use different substrates.
As nodules are difficult to count in fat tissue, metastatic cells were represented as an estimated % of total area of fat.

p16INK4a and mRFP mRNAs = test: Senescent cell biomarkers in skin biopsies of doxorubicin-treated p16-3MR mice; format: in vivo, mouse; conditions: doxorubicin 10 mg/kg, then vehicle or GCV 25 mg/kg daily for 7 days; FIG. 10
Protocol: as §3
Skin biopsies were collected and measured for abundance of senescent cell biomarkers (p16INK4a and mRFP mRNAs).

[7] = Behavior metrics in p16-3MR mice not injected with tumor cells; format: in vivo, mouse
Protocol: (§4) Groups of p16-3MR transgenic mice (5 mice per group) were treated once with doxorubicin (10 mg/kg) or vehicle only as described above. Three days later, GCV was administered 5× daily intraperitoneally at 25 mg/kg, or vehicle only was administered. Three different treatment groups of mice included (1) untreated (NT); (2) doxorubicin, no GCV (DOXO+PBS); (3) doxorubicin and GCV (DOXO+GCV). Mice were housed in metabolic cages for 5-8 days and monitored as described above.

senescent cells [8] = test: Doxorubicin-induced senescent cells in tissues of p16-3MR mice (mRFP and p16INK4a mRNA); format: in vivo, mouse; conditions: doxorubicin 10 mg/kg
Source text: Similar results were observed when the senescent cell accumulation was induced with the chemotherapeutic agent, doxorubicin. […] Various tissues were isolated (liver, heart, lung, kidney, and spleen) and measured for abundance of mRNAs encoding mRFP and p16INK4a as markers for senescent cells (see FIGS. 9A and 9B, respectively).

[9] = Metabolic cage measurements in p16-3MR mice not injected with tumor cells; format: in vivo, mouse; conditions: doxorubicin 10 mg/kg once, GCV 25 mg/kg i.p. 5x daily
Protocol: as §4

[10] = Metabolic cage measurements in p16-3MR mice bearing MMTV-PymT tumors; format: in vivo, mouse; conditions: MMTV-PymT tumor mice; DOXO 10 mg/kg Day 7, GCV 25 mg/kg i.p. daily 5 days; average of three nocturnal measurements
Protocol: as §1, §2

[11] = GCV, fifteen days after B16 injection, FIG. 2C
[12] = MMTV-PymT tumor mice, 28 days after injection with tumor cells

Structure (SMILES): CC[C@H](C(=O)N1CCCC[C@H]1C(=O)O[C@H](CCc1ccc(OC)c(OC)c1)c1cccc(OCC(=O)NCC(CNC(=O)COc2cccc([C@@H](CCc3ccc(OC)c(OC)c3)OC(=O)[C@@H]3CCCCN3C(=O)[C@@H](CC)c3cc(OC)c(OC)c(OC)c3)c2)CN(C)C)c1)c1cc(OC)c(OC)c(OC)c1 [AP20187]
tumor numbers (tumor multiplicity in lungs) [1]: significantly reduced

Structure (SMILES): Nc1nc(O)c2ncn(COC(CO)CO)c2n1 [GCV, ganciclovir]
rLUC expression levels (bioluminescence in tissues) (senescent cells [2]): comparable to unirradiated mice
active behaviors (WHEEL, LLNGE, SLNGE) ([3]; tumor model animals treated with GCV after doxorubicin, vs doxorubicin only): significantly more active behaviors
tumor growth / primary tumors (B16 bioluminescence) (B16 mouse melanoma cells [4]; doxorubicin 10 mg/kg): much smaller primary tumors
tumor diameters (tumor sizes) (B16 mouse melanoma cells [4]; doxorubicin 10 mg/kg): smaller tumor sizes
size of B16 melanoma tumors (B16 mouse melanoma cells [4]; mice pre-treated with doxorubicin 10 mg/kg, GCV 25 mg/kg daily for 7 days): substantially reduced the size
p16INK4a (p16), IL-6, MMP-3 and mRFP expression levels ([5]; irradiated p16-3MR mice treated with GCV, FIG. 1B): returned p16INK4a (p16), IL-6, MMP-3 and mRFP expression levels to those found in the unirradiated control mice
effect on expression levels in wild-type mice ([5]; wild-type, non-transgenic C57B16 mice, data not shown): no detectable effect
Detection of metastatic B16 melanoma cells: Fat (estimated % of total area of fat) (B16 mouse melanoma cells [6]; 18 days after injection): 25%
Detection of metastatic B16 melanoma cells: Liver (luminescent metastatic nodules) (B16 mouse melanoma cells [6]; 18 days after injection): 7 ± 3.6 nodules
Detection of metastatic B16 melanoma cells: Lung (luminescent nodules) (B16 mouse melanoma cells [6]; 18 days after injection): TNTC
levels of B16 cells as detected by luminescence (B16 mouse melanoma cells [6]; GCV, day 18, FIG. 8): still showed relatively low levels of B16 cells
primary lung tumors (B16 mouse melanoma cells [6]; GCV, eighteen days after injection, FIG. 3A): large primary lung tumors were evident
metastases in distal organs (liver and fat tissue) (B16 mouse melanoma cells [6]; GCV, eighteen days after injection, FIG. 3A, 3C): almost devoid of metastases
metastases (B16 mouse melanoma cells [6]; [11]): many fewer metastases
primary tumors (B16 mouse melanoma cells [6]; [11]): much smaller primary tumors
levels of B16 cells as detected by luminescence (B16 mouse melanoma cells [6]; GCV, fifteen days after injection, FIG. 8): relatively low levels of B16 cells
senescence in skin biopsies measured by p16INK4a and mRFP expression (p16INK4a and mRFP mRNAs): low levels of p16INK4a and mRFP expression

IHOME [7]: 1.86 ± 1.66
LLNGE [7]: 61.46 ± 18.11
SLNGE [7]: 6.94 ± 2.51
THOME [7]: 1.15 ± 1.12
WHEEL [7]: 9.58 ± 13.12
IHOME: Entered habitat (stable mass reading) [3, 12]: 4.86 ± 12.3
LLNGE: Long lounge (>60 sec, no non-XY sensor interactions) [3, 12]: 72.06 ± 24.05
SLNGE: Short lounge (5-60 sec, no non-XY sensor interactions) [3, 12]: 5.34 ± 3.64
THOME: Interaction with habitat (no stable mass reading) [3, 12]: 1.16 ± 2.54
WHEEL: Interaction with wheel (>=1 revolution) [3, 12]: 7.09 ± 10.84
Kcal/hr [9]: 0.34 ± 0.1 kcal/h
VCO2 [9]: 1.1 ± 0.36 mL/min
VO2 [9]: 1.14 ± 0.34 mL/min
Wheel run distance (total m) [9]: 2708 ± 1867 m
Kcal/hr [10]: 0.39 ± 0.1 kcal/h
VCO2 [10]: 1.19 ± 0.35 mL/min
VO2 [10]: 1.35 ± 0.33 mL/min
Wheel run distance [10]: 3315 ± 1958 m
Structure (SMILES): COc1cccc2c1C(=O)c1c(O)c3c(c(O)c1C2=O)C[C@@](O)(C(=O)CO)C[C@@H]3O[C@H]1C[C@H](N)[C@H](O)[C@H](C)O1 [doxorubicin]
growth of B16 melanoma cells injected subcutaneously (B16 mouse melanoma cells [4]; doxorubicin 10 mg/kg): stimulated the growth
tumor growth / primary tumors (B16 bioluminescence) (B16 mouse melanoma cells [4]; doxorubicin 10 mg/kg): increased
tumor diameters (tumor sizes) (B16 mouse melanoma cells [4]; doxorubicin 10 mg/kg): increased tumor sizes
presence of senescent cells in tissues (senescent cells [8]; p16-3MR mice): induced the persistent presence of senescent cells
levels of mRFP and p16INK4a mRNA in tissues (senescent cells [8]; liver, heart, lung, kidney, spleen, vs untreated control mice, FIGS. 9A, 9B): higher levels of mRFP and p16INK4a in all tissues
senescence in skin biopsies measured by p16INK4a and mRFP expression (p16INK4a and mRFP mRNAs): increased senescence
